Tests used:
mNET Y151F = mNET Y151F (Mus musculus, UniProt O55192, Y151F); experiment: Uptake inhibition, mNET Y151F mutant; format: cell-based; conditions: for IC50: read-out: IC50 uptake inhibition, mNET Y151F, mean ± SEM
DAT = conditions: ref Carroll et al., 1995, cited from earlier work
mDAT F155Y = mDAT F155Y (Mus musculus, UniProt Q61327, F155Y); experiment: Uptake inhibition, mDAT F155Y mutant; format: cell-based; conditions: for IC50: read-out: IC50 uptake inhibition, mDAT F155Y, mean ± SEM
Chain of mDAT F155Y (Q61327 whole entry F155Y): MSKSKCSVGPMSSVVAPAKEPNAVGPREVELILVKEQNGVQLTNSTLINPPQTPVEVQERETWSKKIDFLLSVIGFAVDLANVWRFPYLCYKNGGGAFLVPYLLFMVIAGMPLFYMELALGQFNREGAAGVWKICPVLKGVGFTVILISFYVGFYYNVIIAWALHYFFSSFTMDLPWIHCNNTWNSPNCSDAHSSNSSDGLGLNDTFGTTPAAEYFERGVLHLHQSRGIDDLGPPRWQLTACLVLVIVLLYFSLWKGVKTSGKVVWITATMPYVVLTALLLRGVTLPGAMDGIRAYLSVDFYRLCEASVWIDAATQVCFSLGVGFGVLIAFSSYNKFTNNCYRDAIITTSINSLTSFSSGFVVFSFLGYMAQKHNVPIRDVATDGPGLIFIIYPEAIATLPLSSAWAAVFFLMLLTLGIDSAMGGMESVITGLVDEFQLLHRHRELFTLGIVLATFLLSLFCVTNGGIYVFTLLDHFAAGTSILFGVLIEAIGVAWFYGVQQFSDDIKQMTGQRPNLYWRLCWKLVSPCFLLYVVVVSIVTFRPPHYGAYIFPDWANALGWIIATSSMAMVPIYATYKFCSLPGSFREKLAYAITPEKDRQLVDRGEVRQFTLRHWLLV

NET = conditions: ref Carroll et al., 1995, cited from earlier work
mNET Y151W = mNET Y151W (Mus musculus, UniProt O55192, Y151W); experiment: Uptake inhibition, mNET Y151W mutant; format: cell-based; conditions: read-out: RTI-113 IC50 [nM] uptake inhibition, mean ± SEM
Chain of mNET Y151W (O55192 whole entry Y151W): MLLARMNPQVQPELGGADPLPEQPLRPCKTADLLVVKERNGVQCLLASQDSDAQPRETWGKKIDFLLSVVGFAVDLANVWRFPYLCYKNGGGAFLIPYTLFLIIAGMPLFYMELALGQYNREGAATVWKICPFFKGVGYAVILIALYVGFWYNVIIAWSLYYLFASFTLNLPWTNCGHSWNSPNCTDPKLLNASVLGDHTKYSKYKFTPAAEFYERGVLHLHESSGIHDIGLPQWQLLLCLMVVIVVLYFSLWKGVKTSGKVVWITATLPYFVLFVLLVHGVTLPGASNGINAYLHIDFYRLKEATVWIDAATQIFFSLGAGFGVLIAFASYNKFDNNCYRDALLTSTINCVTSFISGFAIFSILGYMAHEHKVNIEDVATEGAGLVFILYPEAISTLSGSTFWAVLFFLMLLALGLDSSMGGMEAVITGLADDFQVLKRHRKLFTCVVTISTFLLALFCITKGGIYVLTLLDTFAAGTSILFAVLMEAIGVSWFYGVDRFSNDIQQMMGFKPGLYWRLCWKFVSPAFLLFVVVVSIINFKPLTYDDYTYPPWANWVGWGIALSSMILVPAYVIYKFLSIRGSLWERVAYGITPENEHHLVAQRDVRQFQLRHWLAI

mNET Y151E = mNET Y151E (Mus musculus, UniProt O55192, Y151E); experiment: Uptake inhibition, mNET Y151E mutant; format: cell-based; conditions: read-out: RTI-113 IC50 [nM] uptake inhibition, mean ± SEM
Chain of mNET Y151E (O55192 whole entry Y151E): as the sequence (O55192 whole entry Y151W) above, with W151E counted along it

mNET Y151S = mNET Y151S (Mus musculus, UniProt O55192, Y151S); experiment: Uptake inhibition, mNET Y151S mutant; format: cell-based; conditions: read-out: RTI-113 IC50 [nM] uptake inhibition, mean ± SEM
Chain of mNET Y151S (O55192 whole entry Y151S): as the sequence (O55192 whole entry Y151W) above, with W151S counted along it

mNET Y151A = mNET Y151A (Mus musculus, UniProt O55192, Y151A); experiment: Uptake inhibition, mNET Y151A mutant; format: cell-based; conditions: read-out: RTI-113 IC50 [nM] uptake inhibition, mean ± SEM
Chain of mNET Y151A (O55192 whole entry Y151A): as the sequence (O55192 whole entry Y151W) above, with W151A counted along it

mNET Y151M = mNET Y151M (Mus musculus, UniProt O55192, Y151M); experiment: Uptake inhibition, mNET Y151M mutant; format: cell-based; conditions: read-out: RTI-113 IC50 [nM] uptake inhibition, mean ± SEM
Chain of mNET Y151M (O55192 whole entry Y151M): as the sequence (O55192 whole entry Y151W) above, with W151M counted along it

mNET Y151I = mNET Y151I (Mus musculus, UniProt O55192, Y151I); experiment: Uptake inhibition, mNET Y151I mutant; format: cell-based; conditions: read-out: RTI-113 IC50 [nM] uptake inhibition, mean ± SEM
Chain of mNET Y151I (O55192 whole entry Y151I): as the sequence (O55192 whole entry Y151W) above, with W151I counted along it

mNET Y151L = mNET Y151L (Mus musculus, UniProt O55192, Y151L); experiment: Uptake inhibition, mNET Y151L mutant; format: cell-based; conditions: read-out: RTI-113 IC50 [nM] uptake inhibition, mean ± SEM
Chain of mNET Y151L (O55192 whole entry Y151L): as the sequence (O55192 whole entry Y151W) above, with W151L counted along it

mNET Y151T = mNET Y151T (Mus musculus, UniProt O55192, Y151T); experiment: Uptake inhibition, mNET Y151T mutant; format: cell-based; conditions: read-out: RTI-113 IC50 [nM] uptake inhibition, mean ± SEM
Chain of mNET Y151T (O55192 whole entry Y151T): as the sequence (O55192 whole entry Y151W) above, with W151T counted along it

mNET Y151D = mNET Y151D (Mus musculus, UniProt O55192, Y151D); experiment: Uptake inhibition, mNET Y151D mutant; format: cell-based; conditions: read-out: RTI-113 IC50 [nM] uptake inhibition, mean ± SEM
Chain of mNET Y151D (O55192 whole entry Y151D): as the sequence (O55192 whole entry Y151W) above, with W151D counted along it

mNET Y151Q = mNET Y151Q (Mus musculus, UniProt O55192, Y151Q); experiment: Uptake inhibition, mNET Y151Q mutant; format: cell-based; conditions: read-out: RTI-113 IC50 [nM] uptake inhibition, mean ± SEM
Chain of mNET Y151Q (O55192 whole entry Y151Q): as the sequence (O55192 whole entry Y151W) above, with W151Q counted along it

mNET Y151G = mNET Y151G (Mus musculus, UniProt O55192, Y151G); experiment: Uptake inhibition, mNET Y151G mutant; format: cell-based; conditions: read-out: RTI-113 IC50 [nM] uptake inhibition, mean ± SEM
Chain of mNET Y151G (O55192 whole entry Y151G): as the sequence (O55192 whole entry Y151W) above, with W151G counted along it

[1] = target: mNET-TM8m (A415T/L418I/S421A/A427S/A433V/D435E) (Mus musculus, UniProt O55192, A414T/A426S/A432V/D434E/L417I/S420A); experiment: Uptake inhibition, mNET-TM8m mutant; format: cell-based; conditions: read-out: RTI-113 IC50 [nM] uptake inhibition, mean ± SEM
Chain of mNET-TM8m (A415T/L418I/S421A/A427S/A433V/D435E) (O55192 whole entry A414T/L417I/S420A/A426S/A432V/D434E): as the sequence (O55192 whole entry Y151W) above, with W151Y, A414T, L417I, S420A, A426S, A432V, D434E counted along it

mNET Y151V = mNET Y151V (Mus musculus, UniProt O55192, Y151V); experiment: Uptake inhibition, mNET Y151V mutant; format: cell-based; conditions: read-out: RTI-113 IC50 [nM] uptake inhibition, mean ± SEM
Chain of mNET Y151V (O55192 whole entry Y151V): as the sequence (O55192 whole entry Y151W) above, with W151V counted along it

mNET Y151K = mNET Y151K (Mus musculus, UniProt O55192, Y151K); experiment: Uptake inhibition, mNET Y151K mutant; format: cell-based; conditions: read-out: RTI-113 IC50 [nM] uptake inhibition, mean ± SEM
Chain of mNET Y151K (O55192 whole entry Y151K): as the sequence (O55192 whole entry Y151W) above, with W151K counted along it

mNET Y151N = mNET Y151N (Mus musculus, UniProt O55192, Y151N); experiment: Uptake inhibition, mNET Y151N mutant; format: cell-based; conditions: read-out: RTI-113 IC50 [nM] uptake inhibition, mean ± SEM
Chain of mNET Y151N (O55192 whole entry Y151N): as the sequence (O55192 whole entry Y151W) above, with W151N counted along it

[2] = target: mNET-TM6m (T306S/I315V/F316C/A321) (Mus musculus, UniProt O55192, A321V/F316C/I315V/T306S); experiment: Uptake inhibition, mNET-TM6m mutant; format: cell-based; conditions: read-out: RTI-113 IC50 [nM] uptake inhibition, mean ± SEM
Chain of mNET-TM6m (T306S/I315V/F316C/A321) (O55192 whole entry T306S/I315V/F316C/A321V): as the sequence (O55192 whole entry Y151W) above, with W151Y, T306S, I315V, F316C, A321V counted along it

mNET Y151C = mNET Y151C (Mus musculus, UniProt O55192, Y151C); experiment: Uptake inhibition, mNET Y151C mutant; format: cell-based; conditions: read-out: RTI-113 IC50 [nM] uptake inhibition, mean ± SEM
Chain of mNET Y151C (O55192 whole entry Y151C): as the sequence (O55192 whole entry Y151W) above, with W151C counted along it

[3] = target: mNET-TM3m (Y151F/S159A/Y161H) (Mus musculus, UniProt O55192, S159A/Y151F/Y161H); experiment: Uptake inhibition, mNET-TM3m mutant; format: cell-based; conditions: read-out: RTI-113 IC50 [nM] uptake inhibition, mean ± SEM
Chain of mNET-TM3m (Y151F/S159A/Y161H) (O55192 whole entry Y151F/S159A/Y161H): as the sequence (O55192 whole entry Y151W) above, with W151F, S159A, Y161H counted along it

mDAT = mDAT (Mus musculus, UniProt Q61327); experiment: Inhibition of [3H]dopamine uptake, wild type mDAT in transfected HeLa cells; format: cell-based
Chain of mDAT (Q61327 whole entry): as the sequence (Q61327 whole entry F155Y) above, with Y155F counted along it

mNET = mNET (Mus musculus, UniProt O55192); format: cell-based
Chain of mNET (O55192 whole entry): as the sequence (O55192 whole entry Y151W) above, with W151Y counted along it

Chain of mNET Y151F (O55192 whole entry Y151F): as the sequence (O55192 whole entry Y151W) above, with W151F counted along it

For `COC(=O)[C@H]1[C@@H](c2ccc(Cl)cc2)C[C@H]2CC[C@H]1N2C` [RTI-31], the IC50 (mNET Y151F) is given as 1.44 ± 0.67 nM, the “potency in inhibiting DAT compared with cocaine” value (DAT; times more potent than cocaine) is given as 100 x and the IC50 (mDAT F155Y) is given as 1.65 ± 1.19 nM. The “potency in inhibiting NET compared with cocaine” value (NET; times more potent than cocaine) was 100 x.

With `CN1[C@H]2CC[C@@H]1[C@@H](C(=O)Oc1ccccc1)[C@@H](c1ccc(Cl)cc1)C2` [RTI-113] the IC50 (mNET Y151W) was 256 ± 66.9 nM, the IC50 (mNET Y151E) was 770 ± 55.3 nM and the “increase in potency for inhibition of substrate uptake” value (mNET Y151F; mNET-Y151F versus wild type mNET) was 14 fold. It also gave an IC50 (mNET Y151F) of 12.1 ± 0.8 nM, an IC50 (mNET Y151S) of 99.3 ± 43.8 nM and an IC50 (mNET Y151A) of 130 ± 15.1 nM. The IC50 (mNET Y151M) was 679 ± 174 nM, the IC50 (mNET Y151I) was 199 ± 65.1 nM and the “potency at inhibiting DAT relative to inhibiting NET” value (DAT; DAT over NET selectivity, stated in abstract) was 100 x. It also gave an IC50 (mNET Y151L) of 342 ± 110 nM, an IC50 (mNET Y151T) of 115 ± 33.2 nM and an IC50 (mNET Y151D) of 306 ± 105 nM. The IC50 (mNET Y151Q) was 831 ± 69 nM, the decrease in potency (mDAT F155Y; mDAT-F155Y versus wild type mDAT) was 20 fold and the IC50 (mDAT F155Y) was 13.4 ± 1.9 nM. The IC50 (mNET Y151G) was 165 ± 28.4 nM, the IC50 [1] was 269 ± 35.8 nM and the IC50 (mNET Y151V) was 181 ± 81.1 nM. For the same compound, the IC50 (mNET Y151K) was 453 ± 71 nM, the IC50 (mNET Y151N) was 291 ± 51.5 nM and the IC50 [2] was 341 ± 77.2 nM. The “loss of potency to NET compared with RTI-31” value (NET; times less potent than RTI-31) was “about 100 times”, the IC50 (mNET Y151C) was 211 ± 23 nM and the IC50 [3] was 1.89 ± 1.29 nM.

`COC(=O)[C@H]1[C@@H](OC(=O)c2ccccc2)C[C@@H]2CC[C@H]1N2C` [cocaine] showed an IC50 (mDAT) of 318 ± 126 nM and an IC50 (mNET) of 398 ± 66.8 nM.

— publication PMC3105219 (Neuropharmacology, 2011)
